{"source": "ChEMBL document CHEMBL1155240", "about": "“Discovery of a new class of protein farnesyltransferase inhibitors in the arylthiophene series” (J Med Chem, 2009)", "note": "Activity calls are given as the source filed them. The rule behind the calls is not given here.", "data": [{"test_system": "not listed separately", "assay": "(§1) Inhibition of yeast recombinant FTase", "parameters": "species or system Saccharomyces cerevisiae", "settings": "not given", "values": [{"smiles": "CON(C)C(=O)c1sc(SC(C)C)c(C#N)c1-c1ccc(Cl)cc1", "IC50": "Not Active"}, {"smiles": "CC(C)Sc1sc(CO)c(-c2ccc(Cl)cc2)c1C#N", "IC50": "Not Active"}, {"smiles": "CC(C)Sc1scc(-c2ccc(Cl)cc2)c1C#N", "IC50": "Not Active"}]}, {"biological_target": "not listed separately", "assay": "as §1", "parameters": "species or system Saccharomyces cerevisiae", "settings": "read-out: IC50", "units": {"IC50": "nM"}, "values": [{"smiles": "CSc1sc(C(=O)NC2CC2)c(-c2ccc(Cl)cc2)c1C#N", "IC50": 22000}, {"smiles": "CCOC(=O)c1sc(SC(C)C)c(C#N)c1-c1ccc(Cl)cc1", "IC50": 3800}, {"smiles": "CC(C)CSc1sc(C(=O)O)c(-c2ccc(Cl)cc2)c1C#N", "IC50": 890}, {"smiles": "CCC(C)Sc1sc(C(=O)O)c(-c2ccc(Cl)cc2)c1C#N", "note": "(stereo unspecified)", "IC50": 345}, {"smiles": "COC(=O)[C@@H](CCSC)NC(=O)c1sc(SC(C)C)c(C#N)c1-c1ccc(Cl)cc1", "IC50": 5700}, {"smiles": "CC(C)Sc1c(C#N)c(-c2ccc(Cl)cc2)c(C(=O)O)n1C", "IC50": 47000}, {"smiles": "CC(C)Sc1nc(-c2ccc(Cl)cc2)c(C(=O)O)s1", "IC50": 51000}, {"smiles": "CC(C)Sc1sc(C(=O)O)c(-c2ccc(Cl)cc2)c1C#N", "IC50": 110}, {"smiles": "CC(=O)OCc1sc(SC(C)C)c(C#N)c1-c1ccc(Cl)cc1", "IC50": 45000}, {"smiles": "N#Cc1c(SC2CCCCC2)sc(C(=O)O)c1-c1ccc(Cl)cc1", "IC50": 1450}, {"smiles": "CCCCSc1sc(C(=O)O)c(-c2ccc(Cl)cc2)c1C#N", "IC50": 1240}, {"smiles": "CSc1sc(C(=O)O)c(-c2ccc(Cl)cc2)c1C#N", "IC50": 610}, {"smiles": "N#Cc1c(N2CCOCC2)sc(C(=O)O)c1-c1ccc(Cl)cc1", "IC50": 28000}, {"smiles": "CCSc1sc(C(=O)O)c(-c2ccc(Cl)cc2)c1C#N", "IC50": 325}, {"smiles": "CC(C)Sc1oc(C(=O)O)c(-c2ccc(Cl)cc2)c1C#N", "IC50": 2000}, {"smiles": "CC(C)Sc1sc(C(N)=O)c(-c2ccc(Cl)cc2)c1C#N", "IC50": 1100}, {"smiles": "CC(=O)c1sc(SC(C)C)c(C#N)c1-c1ccc(Cl)cc1", "IC50": 790}, {"smiles": "CSCC[C@@H](NC(=O)c1sc(SC(C)C)c(C#N)c1-c1ccc(Cl)cc1)C(=O)O", "IC50": 7.5}]}, {"test_system": "Saccharomyces cerevisiae", "assay": "as §1", "settings": "not given", "values": [{"smiles": "CCOC(=O)c1c(-c2ccc(Cl)cc2)c(C#N)c(SC(C)C)n1C", "Activity": "inactive"}, {"smiles": "CCOC(=O)c1oc(SC(C)C)c(C#N)c1-c1ccc(Cl)cc1", "Activity": "inactive"}, {"smiles": "CCOC(=O)c1sc(SC(C)C)nc1-c1ccc(Cl)cc1", "Activity": "inactive"}]}, {"biological_target": "not listed separately", "assay": "Inhibition of yeast recombinant FTase by Lineweaver-Burke plot", "parameters": "species or system Saccharomyces cerevisiae", "settings": "not given", "units": {"Ki": "nM"}, "values": [{"smiles": "CC(C)Sc1sc(C(=O)O)c(-c2ccc(Cl)cc2)c1C#N", "Ki": 105}]}, {"biological_target": "not listed separately", "assay": "Inhibition of yeast recombinant FTase by non-competitive Lineweaver-Burke plot using farnesyl pyrophosphate substrate", "parameters": "species or system Saccharomyces cerevisiae", "settings": "not given", "units": {"Ki": "nM"}, "values": [{"smiles": "CC(C)Sc1sc(C(=O)O)c(-c2ccc(Cl)cc2)c1C#N", "Ki": 110}]}]}
